Results on 20 compounds are retold here after US20230399312A1, “SUBSTITUTED PYRIMIDINES AND METHODS OF USE” (THERAVANCE BIOPHARMA R&D IP, LLC, priority 2020, published 2023).

In assay [1] the target is T1, recombinant human ALK5 (TGF-βR1) protein (Homo sapiens, UniProt P36897).
T1 construct: purchased Life Technologies PR9075A
T1 sequence (P36897 34-503): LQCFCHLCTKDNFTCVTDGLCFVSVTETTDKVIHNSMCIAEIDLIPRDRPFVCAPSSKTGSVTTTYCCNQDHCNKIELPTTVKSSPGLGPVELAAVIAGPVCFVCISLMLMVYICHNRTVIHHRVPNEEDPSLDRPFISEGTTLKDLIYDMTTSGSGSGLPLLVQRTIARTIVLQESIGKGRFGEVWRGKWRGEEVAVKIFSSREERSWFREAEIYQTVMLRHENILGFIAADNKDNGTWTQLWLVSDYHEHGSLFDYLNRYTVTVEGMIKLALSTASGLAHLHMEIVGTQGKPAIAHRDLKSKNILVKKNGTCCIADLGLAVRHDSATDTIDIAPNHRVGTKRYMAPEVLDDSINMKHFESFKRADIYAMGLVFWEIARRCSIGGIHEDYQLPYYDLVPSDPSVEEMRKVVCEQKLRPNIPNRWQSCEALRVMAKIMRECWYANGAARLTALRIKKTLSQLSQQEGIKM
Nature of the assay: Biochemical ALK5 (TGF-βR1) assay to measure pKi (LANCE Ultra ULight kinase assay). The following applies: apparent pKi, converted from pIC50 by Cheng-Prusoff. Summed up: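 Enzyme was preincubated with compound for 60 min at room temperature, then ATP (added from a 125 μM 5× stock with 2 mM DTT) started a 60 min reaction at 37 °C. EDTA plus Eu-anti-phospho-Topo2α (Thr1342) antibody stopped it; TR-FRET pIC50 values were converted to pKi by Cheng-Prusoff.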
Background: TR-FRET usually uses a lanthanide donor and a delayed reading to cut background.

Assay [2] relates to TGF-β-stimulated SMAD3 phosphorylation in BEAS-2B cells. In words: Cellular ALK5 potency assay, inhibition of TGF-β stimulated pSMAD3 formation in BEAS-2B cells. The assay is classed as cell-based. The following applies: Homo sapiens, pSMAD3, TGF-β 10 ng/mL, read-out: BEAS2B pIC50 (converted). The method in brief:
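BEAS-2B cells, HBSS/25 mM HEPES/1% BSA buffer; cpd 1 h, 37 °C; TGF-β 10 ng/mL final, 30 min; lysis, AlphaLISA pSMAD3 read next day. pIC50 vs stimulated no-compound baseline.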

With `Cc1cccc(-c2nccc(Nc3ccnc(Nc4nc(C(=O)O[C@@H]5CCN(C)C5)cs4)n3)n2)n1` [Compound 291, [(3R)-1-methylpyrrolidin-3-yl] 2-[[4-[[2-(6-methyl-2-pyridyl)pyrimidin-4-yl]amino]pyrimidin-2-yl]amino]thiazole-4-carboxylate], in assay [1], the Ki is 0.398 to 3.16 nM. In assay [2], the IC50 was 25.1 to 158 nM.

Turning to `Cc1cccc(-c2nccc(Nc3ccnc(Nc4ccc(C(=O)OC5CCCNCC5)nc4)n3)n2)n1` (stereo not shown) [Compound 596, azepan-4-yl 5-[[4-[[2-(6-methyl-2-pyridyl)pyrimidin-4-yl]amino]pyrimidin-2-yl]amino]pyridine-2-carboxylate], the Ki in assay [1] is 0.0398 to 0.316 nM. In addition, the IC50 in assay [2] was 200 to 1260 nM.

For `Cc1cccc(-c2nc(Nc3ccnc(Nc4ccc(C(=O)NC5CCNCC5)cc4)n3)c3cccn3n2)n1` [Compound 1037, 4-[[4-[[2-(6-methyl-2-pyridyl)pyrrolo[2,1-f][1,2,4]triazin-4-yl]amino]pyrimidin-2-yl]amino]-N-(4-piperidyl)benzamide], the Ki in assay [1] is 0.0398 to 0.316 nM. Also, the IC50 in assay [2] is 25.1 to 158 nM.

For `Cc1cccc(-c2nccc(Nc3ccnc(Nc4ccc(N5CCC(C(=O)OCC6CNC6)CC5)cc4)n3)n2)n1` [Compound 368, azetidin-3-ylmethyl 1-[4-[[4-[[2-(6-methyl-2-pyridyl)pyrimidin-4-yl]amino]pyrimidin-2-yl]amino]phenyl]piperidine-4-carboxylate], the Ki in assay [1] is 0.0398 to 0.316 nM. Moreover, the IC50 in assay [2] was 25.1 to 158 nM.

As for `Cc1cccc(-c2nccc(Nc3ccnc(Nc4cc(F)c(NC(=O)C5CCNCC5)c(Cl)c4)n3)n2)n1` [Compound 184, N-[2-chloro-6-fluoro-4-[[4-[[2-(6-methyl-2-pyridyl)pyrimidin-4-yl]amino]pyrimidin-2-yl]amino]phenyl]piperidine-4-carboxamide], the Ki in assay [1] was 0.0398 to 0.316 nM. For the same compound, in assay [2], the IC50 is 25.1 to 158 nM.

On to `Cc1cccc(-c2nccc(Nc3ccnc(Nc4ccc(CN5CCN(C(C)(C)C)CC5)cc4)n3)n2)n1` [Compound 109, N2-[4-[(4-tert-butylpiperazin-1-yl)methyl]phenyl]-N4-[2-(6-methyl-2-pyridyl)pyrimidin-4-yl]pyrimidine-2,4-diamine], for which the Ki in assay [1] is 0.0398 to 0.316 nM. Moreover, the IC50 in assay [2] is 25.1 to 158 nM.

On to `Cc1cccc(-c2nccc(Nc3ccnc(Nc4ccc(-c5cnn(C(C)C)c5)cc4)n3)n2)n1` [Compound 425, N2-[4-(1-isopropylpyrazol-4-yl)phenyl]-N4-[2-(6-methyl-2-pyridyl)pyrimidin-4-yl]pyrimidine-2,4-diamine], for which the Ki in assay [1] was 0.398 to 3.16 nM. Also, the IC50 in assay [2] is 25.1 to 158 nM.

`Cc1cccc(-c2nccc(Nc3ccnc(Nc4ccc(OCCO)cc4)n3)n2)n1` [Compound 54, 2-[4-[[4-[[2-(6-methyl-2-pyridyl)pyrimidin-4-yl]amino]pyrimidin-2-yl]amino]phenoxy]ethanol]: the Ki in assay [1] is 0.398 to 3.16 nM. Further, the IC50 in assay [2] is 25.1 to 158 nM.

Consider `Cc1cccc(-c2nccc(Nc3ccnc(Nc4ccc(N5CCCC(C(=O)OC6CCNC6)C5)cc4)n3)n2)n1` (stereo not shown) [Compound 11, pyrrolidin-3-yl 1-[4-[[4-[[2-(6-methyl-2-pyridyl)pyrimidin-4-yl]amino]pyrimidin-2-yl]amino]phenyl]piperidine-3-carboxylate], for which the Ki in assay [1] was 0.0398 to 0.316 nM. Moreover, the IC50 in assay [2] was 200 to 1260 nM.

`Cc1cccc(-c2nccc(Nc3ccnc(Nc4cnc(N5CCNCC5)nc4)n3)n2)n1` [Compound 86, N4-(2-(6-methylpyridin-2-yl)pyrimidin-4-yl)-N2-(2-(piperazin-1-yl)pyrimidin-5-yl)pyrimidine-2,4-diamine]: the Ki in assay [1] is 0.398 to 3.16 nM. Also, the IC50 in assay [2] was 200 to 1260 nM.

Take `Cc1cccc(-c2nccc(Nc3ccnc(Nc4ccc(NC(=O)C5CCNCC5)c(Cl)c4)n3)n2)n1` [Compound 158, N-[2-chloro-4-[[4-[[2-(6-methyl-2-pyridyl)pyrimidin-4-yl]amino]pyrimidin-2-yl]amino]phenyl]piperidine-4-carboxamide]: the Ki in assay [1] was 0.0398 to 0.316 nM. Also, the IC50 in assay [2] was 25.1 to 158 nM.

On to `Cc1cccc(-c2nccc(Nc3ccnc(Nc4ccc(CN5CCC(O)CC5)cc4)n3)n2)n1` [Compound 405, 1-[[4-[[4-[[2-(6-methyl-2-pyridyl)pyrimidin-4-yl]amino]pyrimidin-2-yl]amino]phenyl]methyl] piperidin-4-ol], for which the Ki in assay [1] is at most 0.0316 nM. The IC50 in assay [2] is 25.1 to 158 nM.

`CCOC(=O)CC1CNCCN1c1ccc(Nc2nccc(Nc3ccnc(-c4cccc(C)n4)n3)n2)cc1` (stereo not shown) [Compound 241, ethyl 2-[1-[4-[[4-[[2-(6-methyl-2-pyridyl)pyrimidin-4-yl]amino]pyrimidin-2-yl]amino]phenyl]piperazin-2-yl]acetate]: the Ki in assay [1] is 0.0398 to 0.316 nM. The IC50 in assay [2] was 25.1 to 158 nM.

Turning to `Cc1cccc(-c2nccc(Nc3ccnc(Nc4csc(C(=O)N5CCNCC5)c4)n3)n2)n1` [Compound 188, [4-[[4-[[2-(6-methyl-2-pyridyl)pyrimidin-4-yl]amino]pyrimidin-2-yl]amino]-2-thienyl]-piperazin-1-yl-methanone], the Ki in assay [1] was at most 0.0316 nM. In addition, the IC50 in assay [2] was 25.1 to 158 nM.

Turning to `Cc1cccc(-c2nccc(Nc3ccnc(Nc4csc(C(=O)OCCN5CCC[C@@H](N)C5)c4)n3)n2)n1` [Compound 598, 2-[(3R)-3-amino-1-piperidyl]ethyl 4-[[4-[[2-(6-methyl-2-pyridyl)pyrimidin-4-yl]amino]pyrimidin-2-yl]amino]thiophene-2-carboxylate], the Ki in assay [1] was 0.0398 to 0.316 nM. For the same compound, in assay [2], the IC50 was 25.1 to 158 nM.

In the case of `Cc1cccc(-c2nccc(Nc3ccnc(Nc4nc(C(=O)N5CCN[C@@H](CO)C5)cs4)n3)n2)n1` [Compound 349, [(3R)-3-(hydroxymethyl)piperazin-1-yl]-[2-[[4-[[2-(6-methyl-2-pyridyl)pyrimidin-4-yl]amino]pyrimidin-2-yl]amino]thiazol-4-yl]methanone], the Ki in assay [1] was 0.398 to 3.16 nM. In addition, the IC50 in assay [2] was 200 to 1260 nM.

On to `Cc1cccc(-c2nccc(Nc3ccnc(Nc4cc(C(=O)OCC5CNC5)ccn4)n3)n2)n1` [Compound 608, azetidin-3-ylmethyl 2-[[4-[[2-(6-methyl-2-pyridyl)pyrimidin-4-yl]amino]pyrimidin-2-yl]amino]pyridine-4-carboxylate], for which the Ki in assay [1] was 3.98 to 31.6 nM. In addition, in assay [2], the IC50 was 200 to 1260 nM.

Take `Cc1cccc(-c2nccc(Nc3ccnc(Nc4cccc(CN5CCN(C)CC5)c4)n3)n2)n1` [Compound 521, N2-[3-[(4-methylpiperazin-1-yl)methyl]phenyl]-N4-[2-(6-methyl-2-pyridyl)pyrimidin-4-yl]pyrimidine-2,4-diamine]: the Ki in assay [1] was 0.0398 to 0.316 nM. In assay [2], the IC50 is 25.1 to 158 nM.

As to `Cc1cccc(-c2nccc(Nc3ccnc(Nc4nc(CN(C)C5CNC5)cs4)n3)n2)n1` [Compound 467, N2-[4-[[azetidin-3-yl(methyl)amino]methyl]thiazol-2-yl]-N4-[2-(6-methyl-2-pyridyl)pyrimidin-4-yl]pyrimidine-2,4-diamine], the Ki in assay [1] is 0.398 to 3.16 nM. Further, the IC50 in assay [2] was 25.1 to 158 nM.

As to `Cc1cccc(-c2nccc(Nc3ccnc(Nc4ccc(NS(=O)(=O)C5CNC5)cc4)n3)n2)n1` [Compound 296, N-[4-[[4-[[2-(6-methyl-2-pyridyl)pyrimidin-4-yl]amino]pyrimidin-2-yl]amino]phenyl]azetidine-3-sulfonamide], the Ki in assay [1] was 0.398 to 3.16 nM. Moreover, the IC50 in assay [2] is 200 to 1260 nM.
